Measured values: ChEMBL document CHEMBL3988442, “University of Dundee, Small-Polar-MMV Screening Library” (2021)

What was measured:
[1] = microbe, parasite or virus in culture; details: Mycobacterium tuberculosis, 72 h, read-out: pIC50 (converted)
[2] = microbe, parasite or virus in culture; details: Mycobacterium tuberculosis, 96 h, read-out: pIC50 (converted)

SMILES | IC50 [1] | IC50 [2]
CCC(CO)NC(=O)Cc1ccc(NC(=O)CC2=CCCCC2)cc1 (stereo not drawn) | > 50.1 µM | > 50.1 µM
CC(=O)Nc1nc(C(=O)NCCOc2ccc(C)cc2)cs1 | > 50.1 µM | > 50.1 µM
CN(C)CCCN1CC2(CCN(C3CCCOC3)CC2)OC1=O (stereo not drawn) | > 50.1 µM | > 50.1 µM
NC(=O)c1ccc(-n2ccnc2-c2cccc(O)c2)cc1N1CCCC1 | > 50.1 µM | > 50.1 µM
CCc1ccccc1OC1CN(C(=O)c2ccnc(OC)c2)C1 | 21.3 µM | 43.4 µM
CC(C)[C@@H]1CN(C(=O)NCc2ccco2)C[C@H]1N(C)C | > 50.1 µM | > 50.1 µM
O=C1N(Cc2ccc(F)c(F)c2)CCCC12CCN(C1CCCCC1)C2 (stereo not drawn) | 15.1 µM | 26.3 µM
Nc1cc(N2CCCC(CO)(Cc3ccccc3F)C2)nc(N)n1 (stereo not drawn) | 47.1 µM | 45.3 µM
FC(F)(F)c1ccnc(N2CCC(c3nccn3CC3CC3)CC2)n1 | 44.6 µM | 16.3 µM
CCc1nc(NC2CCCN(C(=O)c3cccs3)C2)c2cnn(C)c2n1 (stereo not drawn) | > 50.1 µM | > 50.1 µM
CCC(O)CNc1ccc(-c2nc(CC(C)C)no2)cn1 (stereo not drawn) | 44.9 µM | 26.7 µM
O=C(c1coc(COc2cccc3cnccc23)n1)N1CCSCC1 | > 50.1 µM | > 50.1 µM
COc1ncc(CN2CCOC(Cc3cccc4ccccc34)C2)cn1 (stereo not drawn) | > 50.1 µM | > 50.1 µM
CSc1nccc(N2CCC3(CCCN(Cc4ccc(F)cc4)C3)C2)n1 (stereo not drawn) | 27.2 µM | 25.2 µM
CN(C(=O)CC1=CCCCC1)C1CCCN(C2Cc3ccccc3C2)C1 (stereo not drawn) | > 50.1 µM | > 50.1 µM
COCCNS(=O)(=O)c1cccc2c1CN(C(=O)c1ccoc1)CC2 | > 50.1 µM | > 50.1 µM
O=C(NCc1n[nH]c2c1CCCCC2)c1cnn2c1CCCC2 | > 50.1 µM | > 50.1 µM
COc1ccccc1OCCn1c(C)c(C)oc1=O | > 50.1 µM | > 50.1 µM
CNc1nc(C)cc(NCc2cc(C)cc3c(C)c(C)[nH]c23)n1 | 28 µM | 44.8 µM
O=C(c1ccc(Cn2cnnn2)cc1)N1CCC(c2ccncc2)CC1 | > 50.1 µM | > 50.1 µM
CCNc1ncc(C(=O)N2CCOC(CCCC(C)C)C2)cn1 (stereo not drawn) | > 50.1 µM | 43 µM
Cn1c(-c2ccccc2Cl)nc2cc(C(=O)NC(CO)CO)cnc21 | > 50.1 µM | > 50.1 µM
Cc1cccc(CN2C[C@@H](CN3CCCN(C)CC3)C[C@H](CO)C2)n1 | > 50.1 µM | > 50.1 µM
Cc1cc(N2CCN(C(=O)Cc3ccc4c(c3)OCO4)CC2)cc(C)n1 | > 50.1 µM | > 50.1 µM

SMILES | IC50 [1] | IC50 [2]
Cn1nc(CN2CCCN(C3CCCC3)CC2)c2c(Cl)cccc21 | 44.8 µM | 39.8 µM
O=C(Cn1cccn1)N1CCC(Cn2cc(-c3ccsc3)nn2)CC1 | > 50.1 µM | > 50.1 µM
CCc1ncc(-c2cn(CCSc3ncn[nH]3)nn2)cn1 | > 50.1 µM | > 50.1 µM
CN(Cc1ccccc1)CC1(O)CCCN(CCC2CCCCC2)C1=O (stereo not drawn) | > 50.1 µM | > 50.1 µM
Cc1ccc(N2CCN(c3ccccc3C)CC2C)nn1 (stereo not drawn) | > 50.1 µM | > 50.1 µM
Cc1n[nH]c(C)c1CN(C)C(C(=O)O)c1c(F)cccc1OC(C)C (stereo not drawn) | > 50.1 µM | > 50.1 µM
Cc1nc[nH]c1CN1CCCC12CCN(c1nc3ccccc3s1)CC2 | 46 µM | > 50.1 µM
Cc1ccc(-n2cc(CN3CCOCC3)c(-c3cccc(C)c3)n2)cc1 | 24.8 µM | > 50.1 µM
O=C(NCc1ccc(CO)cc1)C1CCOc2ccccc2C1 (stereo not drawn) | > 50.1 µM | 12.2 µM
CN1CCC(N(C)CCC(=O)N2CCC(CCc3ccccc3)CC2)C1 (stereo not drawn) | 41.5 µM | 35.3 µM
c1ccc(-c2cc(CN3C[C@@H]4CC[C@H](C3)N(CC3CC3)C4)on2)cc1 | 24.3 µM | 24.8 µM
Cc1csc(CN(C)CCOc2ccccc2)n1 | 23 µM | 20.5 µM
Cc1cc2nc(C(C)C)cc(N(C)CC3CCCN3C)n2n1 (stereo not drawn) | 9.21 µM | > 50.1 µM
COC[C@H]1CCCN1c1nccc(-c2cnn(-c3ccccc3C)c2)n1 | 17.8 µM | 43.3 µM
CCN(C)Cc1nc(-c2ccccc2NS(C)(=O)=O)oc1C | > 50.1 µM | > 50.1 µM
CN(CCc1ccccc1)Cc1nc(Cc2cccc(F)c2)no1 | 2.69 µM | 33.8 µM
COc1ccnc(CN2CCCC(CCc3ccc(F)cc3)C2)c1OC (stereo not drawn) | 34.7 µM | 20.9 µM
Cc1cnc(N2CCCC(c3ccccc3)C2)nc1-c1ncnn1C (stereo not drawn) | > 50.1 µM | > 50.1 µM
Cc1cc(CN(C)CC2(O)CCCN(CCC3CCCCC3)C2=O)no1 (stereo not drawn) | > 50.1 µM | > 50.1 µM
CCc1ccccc1OC1CN(C(=O)c2cccs2)C1 | 5.46 µM | 14.2 µM
Cc1cc(NCCCC(F)(F)F)n2nc(C)cc2n1 | 15.6 µM | 10.2 µM
CCC(C)Oc1ccc(CNCCNS(C)(=O)=O)cc1Cl (stereo not drawn) | > 50.1 µM | > 50.1 µM
Cc1n[nH]c(C)c1CCNC(=O)C1CCCN(Cc2ccco2)C1 (stereo not drawn) | > 50.1 µM | > 50.1 µM
Cc1ccc2nc(-c3cnc(N)nc3)c(C)c(C(=O)N(C)C)c2c1 | > 50.1 µM | > 50.1 µM

SMILES | IC50 [1] | IC50 [2]
c1ccc(CCc2n[nH]c(C3CCC3)n2)cc1 | > 50.1 µM | > 50.1 µM
Cc1[nH]c(=O)[nH]c(=O)c1CN1CCCC(CCc2ccccc2F)C1 (stereo not drawn) | > 50.1 µM | > 50.1 µM
O=C(c1cn(-c2ccccc2)nn1)N1CCOCC(O)C1 (stereo not drawn) | > 50.1 µM | > 50.1 µM
CN(Cc1nc(CC2CC2)no1)CC1Cc2ccccc2O1 (stereo not drawn) | 38 µM | 22.8 µM
N#Cc1cccc(S(=O)(=O)N2CCCCC2CCN2CCCC2)c1 (stereo not drawn) | 14.3 µM | 8.72 µM
CSc1ncc(C(=O)N2CCN(c3ccccc3C)CC2C)cn1 (stereo not drawn) | 16.4 µM | 18.3 µM
O=C(c1cc(COc2ccc3c(c2)OCO3)[nH]n1)N1CCSCC1 | 31.8 µM | 33.5 µM
Cc1ncsc1CCC(=O)N1CCCC1c1cccnc1 (stereo not drawn) | > 50.1 µM | > 50.1 µM
Fc1ccc(N2CCCN(c3ccc(Cn4ccnc4)cn3)CC2)cc1 | 29.6 µM | 43.5 µM
COc1cccc(CN2CCC(CO)(Cc3ccc(Cl)cc3)CC2)c1O | 29.4 µM | 26.1 µM
Cc1ccoc1C(=O)N1CCC(n2cc(-c3ccsc3)nn2)CC1 | > 50.1 µM | > 50.1 µM
Cc1ccc(CN(Cc2ccncc2)C2CCN(C)CC2)s1 | > 50.1 µM | > 50.1 µM
Cc1ccc(NC2CCCN(Cc3ccc(Cl)cc3)C2)nn1 (stereo not drawn) | 7.35 µM | 6.67 µM
COc1cc(Oc2ccc(C(F)(F)F)cn2)ccc1CN1CCCC1 | 13.9 µM | 16.6 µM
CN(C)CCN(C)c1ccc(-c2nc(COc3ccccc3)no2)cn1 | 48.4 µM | 14.4 µM
COc1cccc(-c2noc(-c3ccc(NCCCO)nc3)n2)c1OC | > 50.1 µM | 21.2 µM
COCC(=O)N1CCCN(Cc2cc(C(C)C)no2)CC1 | > 50.1 µM | > 50.1 µM
CCc1ccc(CN2CCOC(Cc3cccc(F)c3)C2)nc1 (stereo not drawn) | 36.3 µM | 12.3 µM
O=C(NC1CCCN(CCCc2ccccc2)C1)c1ccc(Cl)s1 (stereo not drawn) | 33.6 µM | 24.4 µM
CCCc1nc(C)cc(N2CCC3(CCC(=O)N(CCO)C3)CC2)n1 | > 50.1 µM | > 50.1 µM
CCc1nn(C)c(Cl)c1CN1CCN(c2ccc(C(N)=O)cn2)CC1 | > 50.1 µM | > 50.1 µM
Cc1cc(NCC2CCS(=O)(=O)C2)n2nc(C)cc2n1 (stereo not drawn) | > 50.1 µM | > 50.1 µM
COc1cccc(-c2ncc(CN3CC[C@H]4CC[C@@H](C3)N4)s2)c1 | 41.2 µM | 24.5 µM
COc1cc(Cl)cc(CN2CCCC(N3CCCC3)C2)c1OC (stereo not drawn) | 23.3 µM | 28.3 µM

SMILES | IC50 [1] | IC50 [2]
Cc1nn(C2CCCC2)c2nc(C(C)(C)CN3CCN(C)CC3)[nH]c12 | > 50.1 µM | > 50.1 µM
O=C1Nc2ccccc2NC12CCN(c1cccc(C(F)(F)F)n1)CC2 | > 50.1 µM | > 50.1 µM
CCSc1ncc(CN2CCN(c3nc(C)cnc3C)CC2)cn1 | > 50.1 µM | 28.7 µM
CCc1cn[nH]c1C1CCN(c2cc(C)c3cccc(OC)c3n2)CC1 | 22.2 µM | > 50.1 µM
FC(F)Oc1ccccc1CN1CCCC(c2nccn2CC2CC2)C1 (stereo not drawn) | > 50.1 µM | > 50.1 µM
Cc1cc(Cl)ccc1C(=O)C1CCCN(Cc2cnc(N(C)C)s2)C1 (stereo not drawn) | 45.7 µM | 40.8 µM
CC(C)c1nccn1C(C)C(=O)N1CCN(c2cnccn2)CC1 (stereo not drawn) | > 50.1 µM | > 50.1 µM
CN(C)c1ncnc2c1CCN(C(=O)CN1CCCCC1)C2 | > 50.1 µM | > 50.1 µM
CSCCNC(=O)c1coc(COc2ccc3sc(C)nc3c2)n1 | > 50.1 µM | > 50.1 µM
Cn1ncc2c(N3CCCN4CCC[C@H]4C3)nc(C(C)(C)C)nc21 | > 50.1 µM | 47 µM
Cc1cc(C(=O)NCc2csc(N(C)C)n2)c2ccc(C)c(C)c2n1 | 19 µM | 13.6 µM
Cc1nc(CN2CCCC(CCc3ccccc3C(F)(F)F)C2)no1 (stereo not drawn) | 28.7 µM | 26.2 µM
Cc1ccc(C(=O)N2CCCC(Nc3ccc(F)cc3)C2)cc1 (stereo not drawn) | 18.7 µM | 20.9 µM
OC1(CNCCN2CCc3ccccc32)CNCCOC1 (stereo not drawn) | > 50.1 µM | > 50.1 µM
COc1ccc(-c2ccccc2CCN)c(OC)c1 | 48.2 µM | 41.6 µM
Cc1cc(NC2CCC(=O)N(C)C2)n2nccc2n1 (stereo not drawn) | > 50.1 µM | > 50.1 µM
CCC[C@@H]1CN(Cc2ccc3c(c2)OCCO3)C[C@H]1C(=O)O | > 50.1 µM | > 50.1 µM
CCS(=O)(=O)N1CCC(c2nnc(CN3CCCCCC3)n2C)CC1 | > 50.1 µM | > 50.1 µM
O=C(O)[C@@H]1CN(Cc2ccc(-c3cc[nH]n3)s2)C[C@H]1C1CC1 | > 50.1 µM | > 50.1 µM
COc1coc(CN2CCCC(CCc3ccccc3C)C2)cc1=O (stereo not drawn) | 16.1 µM | 16.2 µM
CCCN1CCC(Nc2cc(-c3ccccc3)ccc2OC)CC1 | 23.4 µM | 32.9 µM
Cc1[nH]c(=O)[nH]c(=O)c1CN1CCCC(CCc2ccc(F)cc2F)C1 (stereo not drawn) | > 50.1 µM | > 50.1 µM
